We go through one compound from paper PMC5183552 (Neuropharmacology, 2016).

The subject of test [1] is mice. Briefly: Indirect calorimetry. It is filed as in vivo, mouse. As to conditions: Adora3−/− mice, 3 mg/kg, i.p.
Another test concerns the target T1, mouse A1AR (Mus musculus, UniProt Q60612).
T1 sequence (Q60612 1-326): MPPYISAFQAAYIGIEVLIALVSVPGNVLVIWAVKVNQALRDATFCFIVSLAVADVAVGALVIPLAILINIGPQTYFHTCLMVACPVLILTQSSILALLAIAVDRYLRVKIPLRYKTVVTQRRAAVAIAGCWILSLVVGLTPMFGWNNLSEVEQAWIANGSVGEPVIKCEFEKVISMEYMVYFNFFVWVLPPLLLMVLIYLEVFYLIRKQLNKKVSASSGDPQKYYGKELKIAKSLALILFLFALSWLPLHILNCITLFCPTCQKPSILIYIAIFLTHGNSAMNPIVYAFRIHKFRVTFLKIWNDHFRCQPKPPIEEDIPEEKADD
Briefly: Radioligand binding, recombinant mouse A1AR in HEK-293 membranes. To be noted: read-out: Ki, mouse A1AR; current results, ±SEM.

Test [2] has as its system mice. The experiment in a line: Temperature gradient. As to conditions: Adora3−/− mice, 3 mg/kg, i.p. The class given is in vivo, mouse.
The next test has as its target T2, mouse A3AR (Mus musculus, UniProt Q61618).
T2 sequence (Q61618 1-319): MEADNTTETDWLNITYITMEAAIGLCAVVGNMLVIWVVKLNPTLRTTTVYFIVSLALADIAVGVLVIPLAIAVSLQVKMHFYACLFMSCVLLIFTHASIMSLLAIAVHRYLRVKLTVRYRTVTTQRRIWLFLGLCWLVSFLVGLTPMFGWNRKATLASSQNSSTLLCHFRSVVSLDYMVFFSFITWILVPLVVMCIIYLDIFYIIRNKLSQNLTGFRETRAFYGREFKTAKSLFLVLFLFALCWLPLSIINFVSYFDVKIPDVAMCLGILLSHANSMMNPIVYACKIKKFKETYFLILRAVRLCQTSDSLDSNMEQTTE
Briefly: Radioligand binding, recombinant mouse A3AR in HEK-293 membranes. To be noted: read-out: Ki, mouse A3AR; current results, ±SEM.

A further test deals with T3, Human A3AR (Homo sapiens, UniProt P0DMS8).
T3 sequence (P0DMS8 1-318): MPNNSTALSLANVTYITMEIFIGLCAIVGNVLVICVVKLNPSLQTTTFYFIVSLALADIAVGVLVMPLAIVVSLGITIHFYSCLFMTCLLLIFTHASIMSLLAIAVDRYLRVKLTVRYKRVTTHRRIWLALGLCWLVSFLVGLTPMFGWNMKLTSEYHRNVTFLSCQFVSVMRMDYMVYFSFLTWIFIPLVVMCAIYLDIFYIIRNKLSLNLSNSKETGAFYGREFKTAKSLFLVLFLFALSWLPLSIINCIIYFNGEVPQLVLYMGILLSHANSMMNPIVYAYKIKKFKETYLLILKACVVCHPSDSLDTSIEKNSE
To be noted: read-out: Ki, human A3AR; ref Franchetti et al, 2009; cited from earlier work.

Another test addresses Human A2AAR (Homo sapiens, UniProt P29274). To be noted: read-out: Ki, human A2AAR; ref Franchetti et al, 2009; cited from earlier work.
The subject of test [3] is mice. The experiment in a line: Body temperature. The class given is in vivo, mouse.
The subject of another test is mouse. To be noted: 0.5 mg/kg, ref Luongo et al, 2012; cited from earlier work.
Setting [4] is: C57BL/6J mice, 0.3–10 mg/kg, i.p.

Chain of Human A2AAR (P29274 whole entry): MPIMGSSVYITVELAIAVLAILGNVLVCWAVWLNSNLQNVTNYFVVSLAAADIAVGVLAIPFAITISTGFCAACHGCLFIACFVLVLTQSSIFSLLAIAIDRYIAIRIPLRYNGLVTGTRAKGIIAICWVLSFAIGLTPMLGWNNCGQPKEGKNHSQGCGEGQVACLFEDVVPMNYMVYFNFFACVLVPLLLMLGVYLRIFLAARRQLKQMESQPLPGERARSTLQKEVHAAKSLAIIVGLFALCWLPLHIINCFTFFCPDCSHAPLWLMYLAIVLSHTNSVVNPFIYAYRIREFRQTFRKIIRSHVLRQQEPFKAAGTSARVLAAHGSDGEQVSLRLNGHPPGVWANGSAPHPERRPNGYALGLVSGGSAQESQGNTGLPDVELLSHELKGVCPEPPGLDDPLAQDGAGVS

The Ki is the dissociation constant of the complex between target and ligand, obtained from inhibition or displacement. Consider `O[C@@H]1[C@H](O)[C@@H](CCl)O[C@H]1n1cnc2c(NC3CC4CCC3C4)ncnc21` (mixture of isomers) [Cl-ENBA, (±)-5'-chloro-5'-deoxy-N^6-endo-norbornyladenosine], for which, in the test on mice [1], the “Time of TEE nadir” value is reported as ~ 50 min and the “Time of Tb nadir” value is recorded as ~ 100 min. For the same compound, in the test with mice [1] (before the Tb nadir), the “Effect on metabolic rate (total energy expenditure)” value is recorded as “reduced metabolic rate” and the “Effect on physical activity” value is recorded as “reduced”. Besides, on mouse A1AR, the Ki turned out to be 0.2 ± 0.01 nM. Also, the “Environmental temperature preference in thermal gradient” value in the test on mice [2] is “modest preference for a cooler place”. For the same compound, the Ki on mouse A3AR is 2410 ± 325 nM. Also, the Ki on Human A3AR is 1290 nM. Moreover, the Ki on Human A2AAR is 1340 nM. Also, in the test with mice [3] (15 µg/mouse, i.c.v.), the “Effect of i.c.v. dosing on Tb in Adora1−/− mice” value is “greatly diminished”. The “Hypothermia in mast cell-deficient Kit W-sh/W-sh mice” value in the test with mice [3] (1 mg/kg, i.p.) was “largely intact”. Further, in the test with mice [3] (3 mg/kg, i.p.), the “Hypothermia in Adora1−/− mice vs wild type” value is reported as “largely abolished”, the “Hypothermia in Adora1−/−;Adora3−/− mice” value was “completely lost”, the “Hypothermia in Adora3−/− mice vs wild type” value was “remained present” and the “Hypothermia in mast cell-deficient Kit W-sh/W-sh mice” value is “significantly attenuated”. In addition, the “Hypothermia after pretreatment with raclopride” value in the test on mice [3] (3 mg/kg, i.p., raclopride 1 mg/kg, data not shown) is recorded as “not affected”. Besides, in the test with mice [3] (setting [4]), the “Effect on Tb” value was “dose-dependent hypothermia” and the “Effect on physical activity” value is “hypoactivity”. In the test with mouse, the Anti-nociceptive effect entry is “anti-nociceptive”.
